Here are results for one molecule from patent US20150224164A1, “TREATMENT OF AUTISM SPECTRUM DISORDERS USING GLYCYL-L-2-METHYLPROLYL-L-GLUMATIC ACID” (Neuren Pharmaceuticals Limited, priority 2013, published 2015).

Where a SMILES comes first, the peptide text is derived from it.

The subject of assay [1] is adult MeCP2+/- mice. As to the kind of experiment: Ocular dominance plasticity, optical imaging (Example 10). To be noted: 4 days monocular deprivation, daily i.p. In kind it is in vivo, mouse. As to the method:
Adult (>P60) wild type (SVEV or BL6) and MeCP2 (+/−) mutant females (BL6) are used for this experiment. The wild type control group is composed of both wild type littermates of MeCP2+/− females or wild type age matched SVEV females. For monocular deprivation, animals are anesthetized with Avertin (0.016 ml/g) and the eyelids of one eye is sutured for 4 days. Prior to imaging, the suture is removed and the deprived eye re-opened. Only animals in which the deprivation sutures are intact and the condition of the deprived eye appears healthy are used for the imaging session. For G-2-MePE signaling activation, a solution containing G-2-MePE is injected intra-peritoneally (IP) daily for the entire period of deprivation. For the imaging sessions mice are anesthetized with urethane (1.5 g/kg; 20% of the full dosage is administered IP each 20-30 minutes up to the final dosage, 0.02 ml of cloroprothixene 1% is also injected together with the first administration). The skull is exposed and a custom-made plate is glued on the head to minimize movement. The skull is thinned over V1 with a dremel drill and covered with an agarose solution in saline (1.5%) and a glass coverslip. During the imaging session, the animal is constantly oxygenated, its temperature maintained with a heating blanket and the eyes periodically treated with silicone oil; physiological conditions are constantly monitored. […]

The test system of assay [2] is hippocampus slices from MeCP2 deficient mice. As to the kind of experiment: Hippocampal long-term potentiation, fEPSP slope (Example 8). To be noted: 20 mg/kg/day i.p. week 4 to 9; vs saline. It is filed as in vivo, mouse. From the text: MeCP2 deficient mice have been previously reported to suffer from functional and ultrastructural synaptic dysfunction, significant impairment of hippocampus-dependent memory and hippocampal long-term potentiation (LTP) (Moretti et al. The Journal of Neuroscience. 2006. 26(1):319-327). To test the effects of the G-2-MePE treatment on synaptic function in the RTT model we compared hippocampal LTP in both vehicle and G-2-MePE treated animals at 9 weeks of age. To do so, we measured the slope of the fEPSP as a % of baseline potential in neurons in slices of hippocampus from MeCP2 deficient mice treated with either saline or G-2-MePE (FIG. 23).

The test system of assay [3] is cortical neurons injured with okadaic acid. Put plainly: In vitro neuroprotection, cortical cultures injured with okadaic acid (MTT). It is filed as cell-based, rat. The note with it: 10 μM; okadaic acid injury; 24 hours incubation; MTT-assay. As to the method: A dam was sacrificed by CO2-treatment, and then was prepared for caesarean section. After surgery, the embryos were removed from their amniotic sacs and decapitated. The heads were placed on ice in DMEM/F12 medium for striatum and PBS+0.65% D(+)-glucose for cortex.
The two cortical hemispheres were carefully removed by spatula from the whole brain with the ventral side facing upside into a PBS+0.65% D(+)-glucose containing petri dish. Forceps were put into the rostral part (near B. olfactorius) of the cortex in order to fix the tissue and two lateral-sagittal oriented cuts were made to remove the […] and entorhinal cortices. […]
The cells were triturated once with a glass Pasteur pipette in 1 ml of Neurobasal/B27 medium and subsequently twice by using a 1 ml insulin syringe with a 22 gauge needle. […] Cells were counted and adjusted to 50,000 cells per 60 μl. […]
To cause toxic injury to neurons, we exposed neurons to 1:100 parts of okadaic acid at concentrations of 30 nM or 100 nM and 0.5 mM 3-nitropropionic acid (for cerebellar microexplants only). […] The survival rate was determined by a colorimetric end-point MTT-assay at 595 nm in a multi-well plate reader. For the cerebellar microexplants four windows (field of 0.65 mm^2) with highest cell density were chosen and cells displaying neurite outgrowth were counted.

The test system of assay [4] is Tbx1 heterozygous, Cntnap2 knockout, Slc9a6 knockout and fmr1 knockout mouse. As to the kind of experiment: Genetic models of ASD: Tbx1, Cntnap2, Slc9a6, fmr1 mice (Example 17). It is filed as in vivo. The note with it: 20 mg/kg/day i.p. As to the method:
Animals in each of the above models are generated in accordance with the methodology described in the cited literature. Wild type equivalents are also obtained for each genetic model. Animals in each model are divided into three groups (n=10 to n=20): placebo treated wild type mice, mutant G-2-MePE-treated group and mutant placebo-treated control group. The treatments are administered intraperitoneally: placebo (saline) or 20 mg/kg/day of G-2-MePE.

With `C[C@@]1(C(=O)N[C@@H](CCC(=O)O)C(=O)O)CCCN1C(=O)CN` [Example G-2-MePE, Glycyl-L-2-methylprolyl-L-glutamic acid] (HELM PEPTIDE1{G.[C[C@@]1(C(=O)[*:2])CCCN1[*:1]].E}$$$$V2.0), the ocular dominance plasticity result in assay [1] was “reduces the OD plasticity”. The “slope of fEPSP (LTP)” value in assay [2] is “increased the slope”. Besides, the neuroprotection in assay [3] is reported as 59%. Also, in assay [4], the “measures associated with the ASD phenotype” value is listed as “significantly improves all measures”.
